Test systems include NCI-H522; HL-60; A549; UO-31; U-251; SR; OVCAR-3; SK-MEL-2; NCI-H23; IGROV-1; KM12; TK-10; A498; HCC 2998; ACHN; Malme-3M; CCRF-CEM; RPMI-8226.
Assay in all cases: DTP human tumour cell line panel, 48 h

Structures are written as SMILES.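 Dose response: 5 concentrations. Exposure: 48 h. Format: 96-well plates. Endpoint: linear interpolation; highest concentration if not reached. GI50 is the concentration that inhibits growth by half.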 The source made the active and inactive calls. No stated cut-off is given here; in the data, active = GI50 up to about 1.1 µM and inactive = higher.

By GI50 is commonly meant the concentration that inhibits growth by half. Regarding `C1CCCCC2(CCCCCCCCC3(CCC1)OCCO3)OCCO2`, the GI50 was > 100 µM (inactive) in the assay with NCI-H522; > 100 µM (inactive) in the assay on HL-60; > 100 µM (inactive) in the assay on A549; < 0.01 µM (active) in the assay on UO-31; > 100 µM (inactive) in the assay on U-251; > 100 µM (inactive) with SR. Also, the GI50 in the assay on OVCAR-3, in the assay with SK-MEL-2, in the assay on NCI-H23, with IGROV-1, in the assay with KM12 and in the assay with TK-10 was > 100 µM (inactive) throughout. Moreover, the GI50 with A498, in the assay on HCC 2998, with ACHN and with Malme-3M was > 100 µM (inactive) each time.
With `Cc1ccc(N)c(S)c1`, the GI50 with NCI-H522 was 17.9 µM (inactive); in the assay with HL-60, 25.2 µM (inactive); with A549 it was 21.5 µM (inactive); with UO-31, 13.8 µM (inactive); with U-251, 15.2 µM (inactive); with SR, 18 µM (inactive). Besides, the GI50 is 21.3 µM (inactive) with OVCAR-3; 17.2 µM (inactive) in the assay with SK-MEL-2; 17.7 µM (inactive) in the assay with NCI-H23; 17.7 µM (inactive) in the assay with IGROV-1; 18.3 µM (inactive) with KM12; 21.8 µM (inactive) in the assay with TK-10. The GI50 was 16.7 µM (inactive) in the assay with A498; 18 µM (inactive) in the assay on CCRF-CEM; 32.1 µM (inactive) in the assay on HCC 2998; 18.5 µM (inactive) in the assay on ACHN; 30.5 µM (inactive) in the assay on Malme-3M.
Take `c1ccc([P+](CCCCCC[P+](c2ccccc2)(c2ccccc2)c2ccccc2)(c2ccccc2)c2ccccc2)cc1`: the GI50 with NCI-H522 is 7.24 µM (inactive); in the assay on HL-60 it was 10.6 µM (inactive); in the assay with A549, 7.41 µM (inactive); with UO-31 it was > 100 µM (inactive); in the assay on U-251, 0.798 µM (active); in the assay on SR, 21.1 µM (inactive). Also, the GI50 with OVCAR-3 is 19.8 µM (inactive); in the assay on NCI-H23, 4.71 µM (inactive); in the assay with IGROV-1, 3.84 µM (inactive); in the assay with KM12, 3.85 µM (inactive); in the assay on TK-10, 8.36 µM (inactive); in the assay with A498 it was 5.04 µM (inactive). Also, the GI50 in the assay on CCRF-CEM was 13.1 µM (inactive); with HCC 2998, 46.7 µM (inactive); in the assay with ACHN, 50.8 µM (inactive); in the assay on Malme-3M, 37.3 µM (inactive).
`Fc1ccc(C2(CCCN3CCc4[nH]c5cc(F)ccc5c4C3)OCCO2)cc1`: the GI50 in the assay on RPMI-8226 was 10.7 µM (inactive); in the assay with HL-60, 10.5 µM (inactive); in the assay on A549 it was 14.7 µM (inactive); in the assay with UO-31, 3.33 µM (inactive); in the assay with U-251, 11.9 µM (inactive); with SR, 7.52 µM (inactive). In addition, the GI50 was 16.2 µM (inactive) with NCI-H23; 20.1 µM (inactive) in the assay on IGROV-1; 13.3 µM (inactive) in the assay with KM12; 14.8 µM (inactive) in the assay with TK-10; 14.3 µM (inactive) with A498; 11.8 µM (inactive) with CCRF-CEM. In addition, the GI50 with HCC 2998 was 2.13 µM (inactive); in the assay on ACHN, 11.4 µM (inactive); in the assay with Malme-3M, 12.3 µM (inactive).
As for `CN1C(Cl)=NS(=O)(=O)c2ccccc21`, the GI50 in the assay with NCI-H522 was 28 µM (inactive); in the assay with HL-60, 35.7 µM (inactive); with A549, > 100 µM (inactive); in the assay on UO-31 it was > 100 µM (inactive); in the assay on U-251 it was > 100 µM (inactive); in the assay with SR, 18.7 µM (inactive). In addition, the GI50 in the assay on OVCAR-3, in the assay with SK-MEL-2, in the assay on NCI-H23, with IGROV-1, in the assay with KM12 and in the assay on TK-10 was > 100 µM (inactive) throughout. Moreover, the GI50 in the assay with A498 was 58.2 µM (inactive); with CCRF-CEM it was 34 µM (inactive); in the assay with HCC 2998, > 100 µM (inactive); with ACHN it was > 100 µM (inactive).
`O=c1[nH]nc(-c2ccccc2)n1-c1cccc([N+](=O)[O-])c1`: the GI50 is > 100 µM (inactive) with RPMI-8226; > 100 µM (inactive) in the assay with NCI-H522; > 100 µM (inactive) in the assay on A549; 38.5 µM (inactive) in the assay with UO-31; > 100 µM (inactive) with U-251; > 100 µM (inactive) with SR. Moreover, the GI50 with OVCAR-3, with SK-MEL-2, with NCI-H23, in the assay with IGROV-1, with KM12 and in the assay with TK-10 was > 100 µM (inactive) each time. Further, the GI50 in the assay with A498, in the assay on CCRF-CEM, in the assay with HCC 2998, in the assay with ACHN and in the assay with Malme-3M was > 100 µM (inactive) each time.
On to `CN(C)CCCNc1ccc2nnn3c4ccc(OC(=O)c5ccccc5)cc4c(=O)c1c23`, for which the GI50 in the assay with RPMI-8226 is 3.29 µM (inactive); with NCI-H522, 2.84 µM (inactive); in the assay on A549, 2.43 µM (inactive); in the assay on UO-31 it was 4.14 µM (inactive); in the assay on U-251, 11.5 µM (inactive); in the assay on SR it was 0.697 µM (active). The GI50 with OVCAR-3 was 11.5 µM (inactive); in the assay with SK-MEL-2, 15.9 µM (inactive); in the assay on NCI-H23 it was 13.4 µM (inactive); in the assay with IGROV-1, 2.11 µM (inactive); in the assay with KM12, 4.92 µM (inactive); in the assay with TK-10, 7.8 µM (inactive). Further, the GI50 in the assay with A498 is 8.41 µM (inactive); with CCRF-CEM it was 1.08 µM (active); in the assay with HCC 2998, 9.08 µM (inactive); in the assay on ACHN, 3.05 µM (inactive); in the assay on Malme-3M, 11.5 µM (inactive).
Regarding `CCCCCCCC/C=C/CCCCCCCC1CC(O)C(=O)O1` (stereo not given), the GI50 was 25.8 µM (inactive) in the assay on RPMI-8226; 35.3 µM (inactive) with HL-60; 51.6 µM (inactive) with A549; 62.8 µM (inactive) with UO-31; 62.7 µM (inactive) with U-251; 27.7 µM (inactive) in the assay with SR. The GI50 in the assay on OVCAR-3 was 27.9 µM (inactive); with NCI-H23 it was 44.8 µM (inactive); in the assay with IGROV-1, 85.3 µM (inactive); with TK-10 it was > 100 µM (inactive); in the assay with A498, 28.4 µM (inactive); with CCRF-CEM, 39.9 µM (inactive). Moreover, the GI50 with HCC 2998 was 61.4 µM (inactive); with ACHN, 28.4 µM (inactive); in the assay on Malme-3M it was 54.1 µM (inactive).
Consider `C=C(C)C1CC2(C)C(C)CC(O)CC2C(OC(=O)C=C(C)C)C1O` (stereo not given), for which the GI50 in the assay on NCI-H522 was 24.3 µM (inactive); in the assay with HL-60, 23 µM (inactive); in the assay with A549 it was 29.4 µM (inactive); in the assay on UO-31, 24.4 µM (inactive); in the assay with U-251, 40 µM (inactive); in the assay on SR, 17.8 µM (inactive). Besides, the GI50 with SK-MEL-2 is 61.5 µM (inactive); in the assay with NCI-H23 it was 30.3 µM (inactive); in the assay on IGROV-1, 40.5 µM (inactive); in the assay with KM12, 33.7 µM (inactive); in the assay with TK-10, 49.2 µM (inactive); with A498, 65.5 µM (inactive). Moreover, the GI50 in the assay on CCRF-CEM was 30.8 µM (inactive); with HCC 2998 it was 43.8 µM (inactive); in the assay with ACHN, 18.6 µM (inactive); with Malme-3M, 45.6 µM (inactive).

Source of the values: ChEMBL document CHEMBL1201862, “PubChem BioAssay data set” (2004).
